In ChEMBL document CHEMBL1201862, “PubChem BioAssay data set” (2004):
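Step 1: Grow cells in 96-well plates. Step 2: Expose to compound for 48 hours at 5 concentrations. Step 3: Interpolate endpoints linearly; if unreached, use highest concentration. The concentration for 50% growth inhibition is given as GI50.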 Active and inactive are the calls of the source. Cut-off read from the data, not from the text of the source: active = GI50 up to about 1.1 µM and inactive = higher.

How the values were obtained:
Assay in all cases: inhibition of tumour cell growth, NCI panel, 48 h
K562 = test system: K562
SW-620 = test system: SW-620
OVCAR-3 = test system: OVCAR-3
A498 = test system: A498
SF-539 = test system: SF-539
M19-MEL = test system: M19-MEL
EKVX = test system: EKVX
HOP-62 = test system: HOP-62
HT-29 = test system: HT-29
SF-268 = test system: SF-268
HCT-15 = test system: HCT-15
OVCAR-8 = test system: OVCAR-8
HCC 2998 = test system: HCC 2998
DMS-114 = test system: DMS-114
U-251 = test system: U-251
HCT-116 = test system: HCT-116
RPMI-8226 = test system: RPMI-8226
RXF 393 = test system: RXF 393
Malme-3M = test system: Malme-3M
KM-20L2 = test system: KM-20L2
HOP-92 = test system: HOP-92
SK-MEL-28 = test system: SK-MEL-28
HOP-18 = test system: HOP-18
MOLT-4 = test system: MOLT-4
DLD-1 = test system: DLD-1
TK-10 = test system: TK-10
UACC-257 = test system: UACC-257
NCI-H23 = test system: NCI-H23
NCI-H460 = test system: NCI-H460
CAKI-1 = test system: CAKI-1
NCI-H226 = test system: NCI-H226
SNB-19 = test system: SNB-19
UO-31 = test system: UO-31
SK-MEL-2 = test system: SK-MEL-2
786-0 = test system: 786-0
SF-295 = test system: SF-295
HL-60 = test system: HL-60
ACHN = test system: ACHN
NCI-H522 = test system: NCI-H522
SK-OV-3 = test system: SK-OV-3
LOX IMVI = test system: LOX IMVI
RXF 631 = test system: RXF 631
KM12 = test system: KM12
CCRF-CEM = test system: CCRF-CEM
M14 = test system: M14
LXFL 529 = test system: LXFL 529
SN12C = test system: SN12C
OVCAR-5 = test system: OVCAR-5
SNB-78 = test system: SNB-78
DMS-273 = test system: DMS-273
IGROV-1 = test system: IGROV-1
SK-MEL-5 = test system: SK-MEL-5
SR = test system: SR
A549 = test system: A549
OVCAR-4 = test system: OVCAR-4
XF498 = test system: XF498
SNB-75 = test system: SNB-75
UACC-62 = test system: UACC-62
COLO 205 = test system: COLO 205

With `CCOC(=O)CCn1ncc(Cl)c(Cl)c1=O` the GI50 (K562) was 2.79 µM (inactive), the GI50 (SW-620) was 3.31 µM (inactive) and the GI50 (OVCAR-3) was 3.57 µM (inactive). The GI50 (A498) was 22.7 µM (inactive), the GI50 (SF-539) was 13.9 µM (inactive) and the GI50 (M19-MEL) was 2.58 µM (inactive). For the same molecule, the GI50 (EKVX) was 18.7 µM (inactive), the GI50 (HOP-62) was 21.4 µM (inactive) and the GI50 (HT-29) was 4.24 µM (inactive). For the same molecule, the GI50 (SF-268) was 7.55 µM (inactive), the GI50 (HCT-15) was 2.15 µM and the GI50 (OVCAR-8) was 5.98 µM (inactive). For the same molecule, the GI50 (HCC 2998) was 3.93 µM (inactive), the GI50 (DMS-114) was 2.1 µM (inactive) and the GI50 (U-251) was 5.89 µM (inactive). For the same molecule, the GI50 (HCT-116) was 11.9 µM (inactive), the GI50 (RPMI-8226) was 2.38 µM (inactive) and the GI50 (RXF 393) was 11.4 µM (inactive). For the same molecule, the GI50 (Malme-3M) was 14.2 µM (inactive), the GI50 (KM-20L2) was 14.2 µM (inactive) and the GI50 (HOP-92) was 11.9 µM (inactive). For the same molecule, the GI50 (SK-MEL-28) was 2.65 µM (inactive), the GI50 (HOP-18) was 3.99 µM (inactive) and the GI50 (MOLT-4) was 3.13 µM (inactive). The GI50 (DLD-1) was 5.5 µM (inactive), the GI50 (TK-10) was 17.9 µM (inactive) and the GI50 (UACC-257) was 11.2 µM (inactive). The GI50 (NCI-H23) was 2.27 µM (inactive), the GI50 (NCI-H460) was 11.9 µM (inactive) and the GI50 (CAKI-1) was 6.18 µM (inactive). The GI50 (NCI-H226) was 10.9 µM (inactive), the GI50 (SNB-19) was 13.5 µM (inactive) and the GI50 (UO-31) was 15.7 µM (inactive). For the same molecule, the GI50 (SK-MEL-2) was 8.53 µM (inactive), the GI50 (786-0) was 14.3 µM (inactive) and the GI50 (SF-295) was 19.5 µM (inactive). The GI50 (HL-60) was 2.67 µM (inactive), the GI50 (ACHN) was 17 µM (inactive) and the GI50 (NCI-H522) was 0.291 µM (active). The GI50 (SK-OV-3) was 26.7 µM (inactive), the GI50 (LOX IMVI) was 8.53 µM (inactive) and the GI50 (RXF 631) was 2.97 µM (inactive). The GI50 (KM12) was 4.86 µM (inactive), the GI50 (CCRF-CEM) was 2.9 µM (inactive) and the GI50 (M14) was 4.21 µM (inactive). The GI50 (LXFL 529) was 3.84 µM (inactive), the GI50 (SN12C) was 13.7 µM (inactive) and the GI50 (OVCAR-5) was 16.7 µM (inactive). The GI50 (SNB-78) was 6.22 µM (inactive), the GI50 (DMS-273) was 9.46 µM (inactive) and the GI50 (IGROV-1) was 11.1 µM (inactive). For the same molecule, the GI50 (SK-MEL-5) was 11.8 µM (inactive), the GI50 (SR) was 2.89 µM (inactive) and the GI50 (A549) was 15.6 µM (inactive). For the same molecule, the GI50 (OVCAR-4) was 1.54 µM (inactive), the GI50 (XF498) was 20.5 µM (inactive) and the GI50 (SNB-75) was 14.8 µM (inactive). The GI50 (UACC-62) was 6.3 µM (inactive) and the GI50 (COLO 205) was 9.23 µM (inactive).
